Measured values taken from PubChem BioAssay AID2060351 (Molecular Pharmacology Branch, DTP, NCI, 2025).

Test system: 521955-158-R7-J2-PDC spheroids, viability % test/control
Test: Anticancer human tumor 521955-158-R7-J2-PDC patient-derived pancreatic carcinoma cell line growth inhibition [TAK]
Settings: spheroids with HUVEC and MSC; for IC50: curve of first compound; for viability, T/C: stronger effect = lower value
Outline: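 Tumor cells were grown as spheroids with HUVEC and hMSC (60:25:15) and treated with targeted agents combined with TAK-243 or ipatasertib. Drugs were tested in half-log steps down from near the clinical Cmax, or from 10 microM where Cmax was unknown.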

[1] = second compound 0.3 µM, first compound 0.0316 µM
[2] = second compound 0.3 µM, first compound 0.1 µM
[3] = second compound 0.3 µM, first compound 0.316 µM
[4] = second compound 0.3 µM, first compound 1 µM
[5] = second compound 0.3 µM, first compound 3.16 µM
[6] = second compound 0.3 µM, first compound 10 µM
[7] = second compound 0.949 µM, first compound 0.0316 µM
[8] = second compound 0.949 µM, first compound 0.1 µM
[9] = second compound 0.949 µM, first compound 0.316 µM
[10] = second compound 0.949 µM, first compound 1 µM
[11] = second compound 0.949 µM, first compound 3.16 µM
[12] = second compound 0.949 µM, first compound 10 µM
[13] = second compound 3 µM, first compound 0.0316 µM
[14] = second compound 3 µM, first compound 0.1 µM
[15] = second compound 3 µM, first compound 0.316 µM
[16] = second compound 3 µM, first compound 1 µM
[17] = second compound 3 µM, first compound 3.16 µM
[18] = second compound 3 µM, first compound 10 µM
[19] = second compound 9.49 µM, first compound 0.0316 µM
[20] = second compound 9.49 µM, first compound 0.1 µM
[21] = second compound 9.49 µM, first compound 0.316 µM
[22] = second compound 9.49 µM, first compound 1 µM
[23] = second compound 9.49 µM, first compound 3.16 µM
[24] = second compound 9.49 µM, first compound 10 µM
[25] = second compound 30 µM, first compound 0.0316 µM
[26] = second compound 30 µM, first compound 0.1 µM
[27] = second compound 30 µM, first compound 0.316 µM
[28] = second compound 30 µM, first compound 1 µM
[29] = second compound 30 µM, first compound 3.16 µM
[30] = second compound 30 µM, first compound 10 µM
[31] = second compound 0.3 µM, first compound 0.000316 µM
[32] = second compound 0.3 µM, first compound 0.001 µM
[33] = second compound 0.3 µM, first compound 0.00316 µM
[34] = second compound 0.3 µM, first compound 0.01 µM
[35] = second compound 0.949 µM, first compound 0.000316 µM
[36] = second compound 0.949 µM, first compound 0.001 µM
[37] = second compound 0.949 µM, first compound 0.00316 µM
[38] = second compound 0.949 µM, first compound 0.01 µM
[39] = second compound 3 µM, first compound 0.000316 µM
[40] = second compound 3 µM, first compound 0.001 µM
[41] = second compound 3 µM, first compound 0.00316 µM
[42] = second compound 3 µM, first compound 0.01 µM
[43] = second compound 9.49 µM, first compound 0.000316 µM
[44] = second compound 9.49 µM, first compound 0.001 µM
[45] = second compound 9.49 µM, first compound 0.00316 µM
[46] = second compound 9.49 µM, first compound 0.01 µM
[47] = second compound 30 µM, first compound 0.000316 µM
[48] = second compound 30 µM, first compound 0.001 µM
[49] = second compound 30 µM, first compound 0.00316 µM
[50] = second compound 30 µM, first compound 0.01 µM
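Also: spheroids exposed to compound for 7 days before readout.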
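For viability, T/C in this document: 100% = DMSO vehicle control wells.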

## CC(C)(C)c1nc(-c2cccc(NS(=O)(=O)c3c(F)cccc3F)c2F)c(-c2ccnc(N)n2)s1 + CC(C)NCC(C(=O)N1CCN(c2ncnc3c2C(C)CC3O)CC1)c1ccc(Cl)cc1
Second compound 0.3 µM
  IC50: > 10000 nM
Second compound 0.949 µM
  IC50: > 10000 nM
Second compound 3 µM
  IC50: > 10000 nM
Second compound 9.49 µM
  IC50: > 10000 nM
Second compound 30 µM
  IC50: > 10000 nM
[1]
  viability, T/C: 111%
[2]
  viability, T/C: 94.3%
[3]
  viability, T/C: 106%
[4]
  viability, T/C: 131%
[5]
  viability, T/C: 101%
[6]
  viability, T/C: 74.2%
[7]
  viability, T/C: 89.3%
[8]
  viability, T/C: 102%
[9]
  viability, T/C: 90.4%
[10]
  viability, T/C: 103%
[11]
  viability, T/C: 92.7%
[12]
  viability, T/C: 60.3%
[13]
  viability, T/C: 95%
[14]
  viability, T/C: 115%
[15]
  viability, T/C: 108%
[16]
  viability, T/C: 130%
[17]
  viability, T/C: 101%
[18]
  viability, T/C: 71.5%
[19]
  viability, T/C: 127%
[20]
  viability, T/C: 115%
[21]
  viability, T/C: 117%
[22]
  viability, T/C: 119%
[23]
  viability, T/C: 105%
[24]
  viability, T/C: 83.7%
[25]
  viability, T/C: 111%
[26]
  viability, T/C: 130%
[27]
  viability, T/C: 138%
[28]
  viability, T/C: 136%
[29]
  viability, T/C: 130%
[30]
  viability, T/C: 97.2%

## CC(C)CC(NC(=O)CNC(=O)c1cc(Cl)ccc1Cl)B1OC(=O)CC(CC(=O)O)(C(=O)O)O1 (stereo not given) + CC(C)NCC(C(=O)N1CCN(c2ncnc3c2C(C)CC3O)CC1)c1ccc(Cl)cc1
Second compound 0.3 µM
  IC50: 38.8 nM
Second compound 0.949 µM
  IC50: 47.4 nM
Second compound 3 µM
  IC50: 42 nM
Second compound 9.49 µM
  IC50: 35 nM
Second compound 30 µM
  IC50: 33.3 nM
[31]
  viability, T/C: 103%
[32]
  viability, T/C: 71.9%
[33]
  viability, T/C: 96.8%
[34]
  viability, T/C: 104%
[1]
  viability, T/C: 60.1%
[2]
  viability, T/C: 3.16%
[35]
  viability, T/C: 119%
[36]
  viability, T/C: 92.2%
[37]
  viability, T/C: 87.6%
[38]
  viability, T/C: 103%
[7]
  viability, T/C: 74.7%
[8]
  viability, T/C: 4.69%
[39]
  viability, T/C: 85.6%
[40]
  viability, T/C: 90.8%
[41]
  viability, T/C: 109%
[42]
  viability, T/C: 85.9%
[13]
  viability, T/C: 64.8%
[14]
  viability, T/C: 5.79%
[43]
  viability, T/C: 116%
[44]
  viability, T/C: 98.8%
[45]
  viability, T/C: 82.7%
[46]
  viability, T/C: 86.4%
[19]
  viability, T/C: 58.1%
[20]
  viability, T/C: 4.1%
[47]
  viability, T/C: 95.1%
[48]
  viability, T/C: 105%
[49]
  viability, T/C: 88.7%
[50]
  viability, T/C: 80.9%
[25]
  viability, T/C: 52.4%
[26]
  viability, T/C: 2.42%

## CC(C)n1nc(-c2ccc3oc(N)nc3c2)c2c(N)ncnc21 + CC(C)NCC(C(=O)N1CCN(c2ncnc3c2C(C)CC3O)CC1)c1ccc(Cl)cc1
Second compound 0.3 µM
  IC50: > 100 nM
Second compound 0.949 µM
  IC50: > 100 nM
Second compound 3 µM
  IC50: > 100 nM
Second compound 9.49 µM
  IC50: > 100 nM
Second compound 30 µM
  IC50: > 100 nM
[31]
  viability, T/C: 112%
[32]
  viability, T/C: 74.7%
[33]
  viability, T/C: 78.8%
[34]
  viability, T/C: 134%
[1]
  viability, T/C: 98.1%
[2]
  viability, T/C: 69%
[35]
  viability, T/C: 118%
[36]
  viability, T/C: 84.9%
[37]
  viability, T/C: 100%
[38]
  viability, T/C: 75.3%
[7]
  viability, T/C: 99%
[8]
  viability, T/C: 100%
[39]
  viability, T/C: 91.3%
[40]
  viability, T/C: 105%
[41]
  viability, T/C: 86.8%
[42]
  viability, T/C: 94.3%
[13]
  viability, T/C: 132%
[14]
  viability, T/C: 120%
[43]
  viability, T/C: 89.9%
[44]
  viability, T/C: 98.3%
[45]
  viability, T/C: 83.9%
[46]
  viability, T/C: 113%
[19]
  viability, T/C: 120%
[20]
  viability, T/C: 106%
[47]
  viability, T/C: 102%
[48]
  viability, T/C: 115%
[49]
  viability, T/C: 103%
[50]
  viability, T/C: 127%
[25]
  viability, T/C: 117%
[26]
  viability, T/C: 80%

## CCCS(=O)(=O)Nc1ccc(F)c(C(=O)c2c[nH]c3ncc(-c4ccc(Cl)cc4)cc23)c1F + CC(C)NCC(C(=O)N1CCN(c2ncnc3c2C(C)CC3O)CC1)c1ccc(Cl)cc1
Second compound 0.3 µM
  IC50: > 100000 nM
Second compound 0.949 µM
  IC50: > 100000 nM
Second compound 3 µM
  IC50: > 100000 nM
Second compound 9.49 µM
  IC50: 21800 nM
Second compound 30 µM
  IC50: 6430 nM
[3]
  viability, T/C: 85.9%
[4]
  viability, T/C: 83.5%
[5]
  viability, T/C: 85.8%
[6]
  viability, T/C: 108%
Second compound 0.3 µM, first compound 31.6 µM
  viability, T/C: 69.5%
Second compound 0.3 µM, first compound 100 µM
  viability, T/C: 81.8%
[9]
  viability, T/C: 84.4%
[10]
  viability, T/C: 94.1%
[11]
  viability, T/C: 90.9%
[12]
  viability, T/C: 107%
Second compound 0.949 µM, first compound 31.6 µM
  viability, T/C: 53.6%
Second compound 0.949 µM, first compound 100 µM
  viability, T/C: 87%
[15]
  viability, T/C: 82.9%
[16]
  viability, T/C: 89.1%
[17]
  viability, T/C: 105%
[18]
  viability, T/C: 88.5%
Second compound 3 µM, first compound 31.6 µM
  viability, T/C: 54%
Second compound 3 µM, first compound 100 µM
  viability, T/C: 50.5%
[21]
  viability, T/C: 85.4%
[22]
  viability, T/C: 107%
[23]
  viability, T/C: 99.8%
[24]
  viability, T/C: 73.7%
Second compound 9.49 µM, first compound 31.6 µM
  viability, T/C: 39.9%
Second compound 9.49 µM, first compound 100 µM
  viability, T/C: 32.4%
[27]
  viability, T/C: 107%
[28]
  viability, T/C: 119%
[29]
  viability, T/C: 127%
[30]
  viability, T/C: 5.6%
Second compound 30 µM, first compound 31.6 µM
  viability, T/C: 5.46%
Second compound 30 µM, first compound 100 µM
  viability, T/C: 13.1%
